From ChEMBL document CHEMBL1201862, “PubChem BioAssay data set” (2004)
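The compound was tested at five concentrations on cells cultured in 96-well plates, with a 48-hour exposure period. GI50 marks 50% less growth.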 Calls of active or inactive are those of the source. Rule as the data show it: active = GI50 up to about 1.1 µM and inactive = higher.

How the values were obtained:
Assay in all cases: inhibition of tumour cell growth, NCI panel, 48 h
COLO 205 = test system: COLO 205
HCC 2998 = test system: HCC 2998
HCT-15 = test system: HCT-15
Hs-578T = test system: Hs-578T
MDA-N = test system: MDA-N
MOLT-4 = test system: MOLT-4
NCI-H226 = test system: NCI-H226
NCI-H522 = test system: NCI-H522
NCI/ADR-RES = test system: NCI/ADR-RES
SF-268 = test system: SF-268
SF-295 = test system: SF-295
SK-MEL-2 = test system: SK-MEL-2
SK-MEL-5 = test system: SK-MEL-5
SNB-19 = test system: SNB-19
SNB-75 = test system: SNB-75
SR = test system: SR
TK-10 = test system: TK-10
UO-31 = test system: UO-31
RXF 393 = test system: RXF 393

SMILES | GI50 (COLO 205) | GI50 (HCC 2998) | GI50 (HCT-15) [µM] | GI50 (Hs-578T) | GI50 (MDA-N) | GI50 (MOLT-4) | GI50 (NCI-H226) | GI50 (NCI-H522) | GI50 (NCI/ADR-RES) | GI50 (SF-268) | GI50 (SF-295) | GI50 (SK-MEL-2) | GI50 (SK-MEL-5) | GI50 (SNB-19) | GI50 (SNB-75) | GI50 (SR) | GI50 (TK-10) | GI50 (UO-31) | GI50 (RXF 393)
COc1cc2c3cc1Oc1c(OC)c(OC)cc4c1C(Cc1ccc(O)c(c1)Oc1ccc(cc1)CC3N(C)CC2)N(C)CC4 (centres undefined) | 32 µM (inactive) | 15.8 µM (inactive) | 16.1 | 24.2 µM (inactive) | 21.7 µM (inactive) | 44.4 µM (inactive) | 49.9 µM (inactive) | 31.5 µM (inactive) | 31.5 µM (inactive) | 24.3 µM (inactive) | 21.5 µM (inactive) | 28.8 µM (inactive) | 20 µM (inactive) | 20.2 µM (inactive) | 23.3 µM (inactive) | 2.09 µM (inactive) | 42.8 µM (inactive) | 16.7 µM (inactive) | 
O=[As](O)(O)c1ccc(NCc2ccccc2)cc1 | > 100 µM (inactive) |  | > 100 | 58.9 µM (inactive) | > 100 µM (inactive) | > 100 µM (inactive) | > 100 µM (inactive) | 76.9 µM (inactive) | > 100 µM (inactive) | > 100 µM (inactive) | > 100 µM (inactive) | > 100 µM (inactive) | > 100 µM (inactive) | > 100 µM (inactive) | > 100 µM (inactive) | > 100 µM (inactive) | > 100 µM (inactive) | > 100 µM (inactive) | > 100 µM (inactive)
CN(C)Cc1c[nH]c2ncnc(O)c12 | 35.8 µM (inactive) |  | 35.5 | > 100 µM (inactive) | 23.1 µM (inactive) | 7.8 µM (inactive) | > 100 µM (inactive) | > 100 µM (inactive) | 62.7 µM (inactive) | 73.1 µM (inactive) | > 100 µM (inactive) | 43.6 µM (inactive) | 53.7 µM (inactive) | 70.1 µM (inactive) | 33.3 µM (inactive) | 27.1 µM (inactive) | 37.7 µM (inactive) | 62.2 µM (inactive) | 18.6 µM (inactive)
NC(=O)C(N)Cc1ccc(O)cn1 (centres undefined) | > 100 µM (inactive) | > 100 µM (inactive) | > 100 | > 100 µM (inactive) | > 100 µM (inactive) | > 100 µM (inactive) | > 100 µM (inactive) | > 100 µM (inactive) | > 100 µM (inactive) | > 100 µM (inactive) | > 100 µM (inactive) |  | > 100 µM (inactive) | > 100 µM (inactive) | > 100 µM (inactive) | > 100 µM (inactive) | > 100 µM (inactive) | > 100 µM (inactive) | > 100 µM (inactive)
O=C(Nc1ccccc1)c1cc(S(=O)(=O)Nc2n[nH]c(=O)[nH]2)c(SSc2cc(Cl)c(C(=O)Nc3ccccc3)cc2S(=O)(=O)Nc2n[nH]c(=O)[nH]2)cc1Cl | > 100 µM (inactive) | > 100 µM (inactive) | > 100 | > 100 µM (inactive) | > 100 µM (inactive) | > 100 µM (inactive) | > 100 µM (inactive) | > 100 µM (inactive) | > 100 µM (inactive) | > 100 µM (inactive) | > 100 µM (inactive) | > 100 µM (inactive) | > 100 µM (inactive) | > 100 µM (inactive) | > 100 µM (inactive) | > 100 µM (inactive) | > 100 µM (inactive) | > 100 µM (inactive) | 
CCc1c[n+]([O-])c(C)cc1[N+](=O)[O-] | 15.6 µM (inactive) | 24.3 µM (inactive) | 18.8 | > 100 µM (inactive) | 44.2 µM (inactive) | > 100 µM (inactive) |  | 55.3 µM (inactive) | > 100 µM (inactive) | > 100 µM (inactive) | > 100 µM (inactive) | 21 µM (inactive) | > 100 µM (inactive) | > 100 µM (inactive) | 78.3 µM (inactive) | 33.6 µM (inactive) | 35.2 µM (inactive) | > 100 µM (inactive) | 22.4 µM (inactive)
[N-]=[N+]=NC1=C(C(=O)c2ccccc2)C(=O)c2cccc3cccc1c23 | > 100 µM (inactive) |  |  | 20.7 µM (inactive) | 64.3 µM (inactive) | 23 µM (inactive) | 36.4 µM (inactive) | 23 µM (inactive) | 67.3 µM (inactive) | 17.1 µM (inactive) | 42.3 µM (inactive) | 21.8 µM (inactive) | 44.2 µM (inactive) | 28.1 µM (inactive) | 15.8 µM (inactive) | 10.6 µM (inactive) | 21.9 µM (inactive) | 26.2 µM (inactive) | 22.4 µM (inactive)
CCN(CC)/N=C\c1c2ccccc2cc2ccccc12 | 23.5 µM (inactive) |  | 34.6 | 48 µM (inactive) | 39 µM (inactive) | 21 µM (inactive) |  | 21 µM (inactive) | 79.4 µM (inactive) | 72.8 µM (inactive) | 39 µM (inactive) | 27.9 µM (inactive) | 21.8 µM (inactive) | > 100 µM (inactive) | 18.3 µM (inactive) | 26.6 µM (inactive) | 55 µM (inactive) | 48.8 µM (inactive) | 17.7 µM (inactive)
O=C(O)c1c2c(cc3c1CC1(Cc4ccccc4C1)C3)CCC2 | 57.7 µM (inactive) | > 100 µM (inactive) | 82.4 | 63.8 µM (inactive) | > 100 µM (inactive) | 82.8 µM (inactive) | > 100 µM (inactive) | 49.1 µM (inactive) | 35.4 µM (inactive) | > 100 µM (inactive) | > 100 µM (inactive) |  | 59.7 µM (inactive) |  | > 100 µM (inactive) | 52.8 µM (inactive) | > 100 µM (inactive) | 30.3 µM (inactive) | > 100 µM (inactive)
NC(CSC1c2ccccc2-c2ccccc21)C(=O)O (centres undefined) | > 100 µM (inactive) |  | > 100 | 23.9 µM (inactive) | > 100 µM (inactive) | > 100 µM (inactive) | > 100 µM (inactive) |  | > 100 µM (inactive) |  | > 100 µM (inactive) | > 100 µM (inactive) | > 100 µM (inactive) | > 100 µM (inactive) | > 100 µM (inactive) | 69.2 µM (inactive) | > 100 µM (inactive) | > 100 µM (inactive) | > 100 µM (inactive)
Cc1c(CCCl)c(=O)n2c([nH]c3ccccc32)c1C#N | 0.148 µM (active) |  | 1.57 | 3.22 µM (inactive) | 1.61 µM (inactive) | 0.237 µM (active) | 2.02 µM (inactive) |  | 1.27 µM (inactive) | 1.95 µM (inactive) | 1.66 µM (inactive) | 2.79 µM (inactive) | 1.42 µM (inactive) |  | 1.45 µM (inactive) | 0.527 µM (active) | 2.54 µM (inactive) | 1.91 µM (inactive) | 1.76 µM (inactive)
CCCCCCCCCCCCCCCCS(=O)(=O)c1ccc(NN)cc1 | > 10 µM (inactive) | > 10 µM (inactive) | > 10 | 7.96 µM (inactive) | > 10 µM (inactive) | 6.43 µM (inactive) |  | 5.9 µM (inactive) | > 10 µM (inactive) | 9.38 µM (inactive) | > 10 µM (inactive) | > 10 µM (inactive) | > 10 µM (inactive) | > 10 µM (inactive) |  | 2.77 µM (inactive) | > 10 µM (inactive) |  | > 10 µM (inactive)
CC1=C/C(=N\OCC(=O)O)CC(c2ccc(C(C)C)cc2)C1 (centres undefined) | 76.7 µM (inactive) |  | 23.2 | > 100 µM (inactive) | 34.5 µM (inactive) | 16.3 µM (inactive) |  | 23.2 µM (inactive) | 21.1 µM (inactive) |  | 39.8 µM (inactive) | 99.1 µM (inactive) | 17.5 µM (inactive) |  |  | 28.1 µM (inactive) |  |  | > 100 µM (inactive)
CN(C)/C=N/CCN1CCOCC1 | > 100 µM (inactive) |  | > 100 | > 100 µM (inactive) | > 100 µM (inactive) | > 100 µM (inactive) | > 100 µM (inactive) | > 100 µM (inactive) | > 100 µM (inactive) | > 100 µM (inactive) | > 100 µM (inactive) | > 100 µM (inactive) | > 100 µM (inactive) | > 100 µM (inactive) | 97.7 µM (inactive) | > 100 µM (inactive) | > 100 µM (inactive) | > 100 µM (inactive) | > 100 µM (inactive)
CCOC(=O)Oc1cc2c(c(OC)c1OC)-c1ccc(SC)c(=O)cc1C(NC(=O)C(F)(F)F)CC2 (centres undefined) | 0.0577 µM (active) | 0.0435 µM (active) | 0.00221 | < 0.001 µM (active) | < 0.001 µM (active) | 0.00117 µM (active) | 0.00106 µM (active) | < 0.001 µM (active) | 0.0102 µM (active) | 0.00196 µM (active) | < 0.001 µM (active) |  | < 0.001 µM (active) | 0.00316 µM (active) | < 0.001 µM (active) | 0.00128 µM (active) | > 10 µM (inactive) | 0.244 µM (active) | < 0.001 µM (active)
COC(=O)C(COC(=O)/C=C/c1ccc(OC(C)=O)c(OC(C)=O)c1)NC(=O)/C=C/c1ccc(OC(C)=O)c(OC(C)=O)c1 (centres undefined) | 20.7 µM (inactive) | 19.4 µM (inactive) | 25.5 | 30.3 µM (inactive) | 20.5 µM (inactive) | 38.3 µM (inactive) | 36.2 µM (inactive) | 18.1 µM (inactive) | 45.8 µM (inactive) | > 10 µM (inactive) |  | 18.3 µM (inactive) | 14.7 µM (inactive) | 22.9 µM (inactive) | 29.9 µM (inactive) | 18 µM (inactive) |  |  | 37.1 µM (inactive)
NC1=NCCN1CC(=O)O [CYCLOCREATINE] | > 1000 µM (inactive) | > 1000 µM (inactive) | > 1000 | 4040 µM (inactive) | > 10000 µM (inactive) | > 1000 µM (inactive) | > 1000 µM (inactive) | > 10000 µM (inactive) | > 1000 µM (inactive) | 4990 µM (inactive) | > 10000 µM (inactive) | > 1000 µM (inactive) | > 1000 µM (inactive) | > 1000 µM (inactive) |  | > 1000 µM (inactive) | > 1000 µM (inactive) | > 1000 µM (inactive) | > 1000 µM (inactive)
